# According to patent publication US20250223297A1, “NOVEL RAPAMYCIN DERIVATIVES” (Novartis AG, priority 2017, published 2025):
# pIC50: −log10 of the molar value.
# Tested on: mTORC1 signaling (pS6 Ser240/244) in MEF TSC1−/− cells
# Assay: MEF TSC1-/- cell based assay for rapalog potency (pS6)
# Set-up: species or system mouse
# Conditions: 2 h treatment, average from multiple assays
# From the text: Potency of mTOR inhibitors may also be determined using a MEF TSC1−/− cell-based assay. MEF TSC1−/− cells are Mouse Embryonic Fibroblasts deficient in the Tuberous sclerosis protein, TSC1, which negatively regulates mTORC1 signaling. Thus, the deficiency of TSC1 induces constitutive mTORC1 activation, resulting in phosphorylation (activation) of the downstream proteins in the mTORC1 signaling pathways. This cell-based assay is used to measure inhibition (de-phosphorylation) of the mTORC1 signaling components S6 and 4EBP1, by rapalogs or other mTOR inhibitors.
# The assay is typically carried out as follows: MEF TSC1−/− cells are plated on Poly-D-lysine coated 384 well Griener clear bottom plates and incubated overnight at 37° C., 5% CO2. […] Cells are fixed with 4% paraformaldehyde for 30 min and washed 5 times with TBS-EDTA followed by immuno-staining with florescent tag labeled antibodies for pS6 and p4EBP1. Nuclei are visualized with Hoechst staining. Cells are imaged using respective florescence channels and the potency of mTOR inhibitors is defined by pS6 IC50 (nM).
# Cell-based assay for rapalog potency determination. Rapalog potency was determined using MEF TSC1−/− cell based assay. MEF TSC1−/− cells are Mouse Embryonic Fibroblasts deficient in Tuberous sclerosis protein-TSC1, which negatively regulates mTORC1 signaling and thus display constitutive mTORC1 activation, resulting in phosphorylation (activation) of downstream molecules. This cell-based assay is used to measure inhibition (de-phosphorylation) of S6 and 4EBP1 by rapalogs or other mTOR inhibitors.
# MEF TSC1−/− cells were plated on Poly-D-lysine coated 384 well Griener clear bottom plates and incubated overnight at 37° C., 5% CO2. […] Nuclei were visualized with Hoechst (ThermoFisher Scientific #H3570) staining. Cells were imaged (InCell 600) using respective fluorescence channels and the potency of mTOR inhibitors was defined by pS6 IC50 (nM).
# In vitro potency of mTOR inhibitors was defined by pS6 IC50 (nM) in MEF TSC1−/− cells.
# IC50 values are calculated as the average from multiple assays.
row,pIC50,Structure (SMILES)
1,9.18,"CO[C@@H]1C[C@H](C[C@@H](C)[C@@H]2CC[C@H](C)/C=C(\C)[C@@H](O)[C@@H](OC)C(=O)[C@H](C)C[C@H](C)/C=C/C=C/C=C(\C)C(N3CCS3(=O)=O)C[C@@H]3CC[C@@H](C)[C@@](O)(O3)C(=O)C(=O)N3CCCC[C@H]3C(=O)O2)CC[C@@H]1n1cnnn1 (single isomer, unassigned) [Example 13]"
2,8.84,"CO[C@@H]1C[C@H](C[C@@H](C)[C@@H]2CC[C@H](C)/C=C(\C)[C@@H](O)[C@@H](OC)C(=O)[C@H](C)C[C@H](C)/C=C/C=C/C=C(\C)C(N3CCS3(=O)=O)C[C@@H]3CC[C@@H](C)[C@@](O)(O3)C(=O)C(=O)N3CCCC[C@H]3C(=O)O2)CC[C@H]1OCCO (single isomer, unassigned) [Example 9, C16-(1,1-dioxido-1,2-thiazetidin-2-yl)-C32-deoxo-C40-(2-hydroxyethoxy)-rapamycin]"
3,9.52,"CO[C@@H]1C[C@H](C[C@@H](C)[C@@H]2CC[C@H](C)/C=C(\C)[C@@H](O)[C@@H](OC)C(=O)[C@H](C)C[C@H](C)/C=C/C=C/C=C(\C)C(N3CCS3(=O)=O)C[C@@H]3CC[C@@H](C)[C@@](O)(O3)C(=O)C(=O)N3CCCC[C@H]3C(=O)O2)CC[C@H]1O (single isomer, unassigned) [Example 7, C16-(1,1-dioxido-1,2-thiazetidin-2-yl)-C32-deoxo-rapamycin]"
4,9.48,"CO[C@@H]1C[C@H](C[C@@H](C)[C@@H]2CC[C@H](C)/C=C(\C)[C@@H](O)[C@@H](OC)C(=O)[C@H](C)C[C@H](C)/C=C/C=C/C=C(\C)C(N3CCS3(=O)=O)C[C@@H]3CC[C@@H](C)[C@@](O)(O3)C(=O)C(=O)N3CCCC[C@H]3C(=O)O2)CC[C@H]1OCCO (single isomer, unassigned) [Example 8, C16-(1,1-dioxido-1,2-thiazetidin-2-yl)-C32-deoxo-C40-(2-hydroxyethoxy)-rapamycin]"

# Same assay, conditions: Mus musculus, 2 h, 2 h treatment, average from multiple assays
row,pIC50,Structure (SMILES)
1,9.77,"CO[C@@H]1C[C@H](C[C@@H](C)[C@@H]2CC[C@H](C)/C=C(\C)[C@@H](O)[C@@H](OC)C(=O)[C@H](C)C[C@H](C)/C=C/C=C/C=C(\C)C(N3CCS3(=O)=O)C[C@@H]3CC[C@@H](C)[C@@](O)(O3)C(=O)C(=O)N3CCCC[C@H]3C(=O)O2)CC[C@H]1O (single isomer, unassigned) [Example 6, C16-(1,1-dioxido-1,2-thiazetidin-2-yl)-C32-deoxo-rapamycin]"
2,9.43,"CO[C@@H]1C[C@H](C[C@@H](C)[C@@H]2CC[C@H](C)/C=C(\C)[C@@H](O)[C@@H](OC)C(=O)[C@H](C)C[C@H](C)/C=C/C=C/C=C(\C)C(N3CCS3(=O)=O)C[C@@H]3CC[C@@H](C)[C@@](O)(O3)C(=O)C(=O)N3CCCC[C@H]3C(=O)O2)CC[C@@H]1n1cnnn1 (single isomer, unassigned) [Example 12]"
3,6.82,"CO[C@@H]1C[C@H](C[C@@H](C)[C@@H]2CC[C@H](C)/C=C(\C)[C@@H](O)[C@@H](OC)C(=O)[C@H](C)C[C@H](C)/C=C/C=C/C=C(\C)C(N3CCN(CCO)C3=O)C[C@@H]3CC[C@@H](C)[C@@](O)(O3)C(=O)C(=O)N3CCCC[C@H]3C(=O)O2)CC[C@H]1O (single isomer, unassigned) [Example 5]"
4,8.49,"CO[C@@H]1C[C@H](C[C@@H](C)[C@@H]2CC[C@H](C)/C=C(\C)[C@@H](O)[C@@H](OC)C(=O)[C@H](C)C[C@H](C)/C=C/C=C/C=C(\C)C(N3CCCS3(=O)=O)C[C@@H]3CC[C@@H](C)[C@@](O)(O3)C(=O)C(=O)N3CCCC[C@H]3C(=O)O2)CC[C@H]1OP(C)(C)=O (single isomer, unassigned) [Example 15, C16-(1,1-dioxidoisothiazolidin-2-yl)-C32-deoxo-C40-dimethylphosphinyl-rapamycin]"
